These compounds were tested against T1, EGFR L858R-T790M (Homo sapiens, UniProt P00533, L858R/T790M) (assay: EGFR degradation, Total EGFR (L858R-specific) HTRF, NCI-H1975). Conditions: Table 9A; NCI-H1975 cells, 6 hours, Total EGFR HTRF; read-out: H1975 EGFR DC50.
T1 construct: NCI-H1975 (harboring EGFR heterozygous L858R-T790M mutations); host or cells: NCI-H1975
Assay type: cell-based
Summary of the method: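 FRET signal from HTRF kits measured phospho-EGFR at pY1068 or total EGFR after 6 h treatment at 37 °C. Compounds ran as 11-point half-log dilutions from 10 μM in duplicate, in cells in phenol red-free RPMI with 10% FBS. Concentrations giving 50% inhibition or degradation were reported as IC50 or DC50.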

T1 sequence (P00533 25-1210 T790M/L858R): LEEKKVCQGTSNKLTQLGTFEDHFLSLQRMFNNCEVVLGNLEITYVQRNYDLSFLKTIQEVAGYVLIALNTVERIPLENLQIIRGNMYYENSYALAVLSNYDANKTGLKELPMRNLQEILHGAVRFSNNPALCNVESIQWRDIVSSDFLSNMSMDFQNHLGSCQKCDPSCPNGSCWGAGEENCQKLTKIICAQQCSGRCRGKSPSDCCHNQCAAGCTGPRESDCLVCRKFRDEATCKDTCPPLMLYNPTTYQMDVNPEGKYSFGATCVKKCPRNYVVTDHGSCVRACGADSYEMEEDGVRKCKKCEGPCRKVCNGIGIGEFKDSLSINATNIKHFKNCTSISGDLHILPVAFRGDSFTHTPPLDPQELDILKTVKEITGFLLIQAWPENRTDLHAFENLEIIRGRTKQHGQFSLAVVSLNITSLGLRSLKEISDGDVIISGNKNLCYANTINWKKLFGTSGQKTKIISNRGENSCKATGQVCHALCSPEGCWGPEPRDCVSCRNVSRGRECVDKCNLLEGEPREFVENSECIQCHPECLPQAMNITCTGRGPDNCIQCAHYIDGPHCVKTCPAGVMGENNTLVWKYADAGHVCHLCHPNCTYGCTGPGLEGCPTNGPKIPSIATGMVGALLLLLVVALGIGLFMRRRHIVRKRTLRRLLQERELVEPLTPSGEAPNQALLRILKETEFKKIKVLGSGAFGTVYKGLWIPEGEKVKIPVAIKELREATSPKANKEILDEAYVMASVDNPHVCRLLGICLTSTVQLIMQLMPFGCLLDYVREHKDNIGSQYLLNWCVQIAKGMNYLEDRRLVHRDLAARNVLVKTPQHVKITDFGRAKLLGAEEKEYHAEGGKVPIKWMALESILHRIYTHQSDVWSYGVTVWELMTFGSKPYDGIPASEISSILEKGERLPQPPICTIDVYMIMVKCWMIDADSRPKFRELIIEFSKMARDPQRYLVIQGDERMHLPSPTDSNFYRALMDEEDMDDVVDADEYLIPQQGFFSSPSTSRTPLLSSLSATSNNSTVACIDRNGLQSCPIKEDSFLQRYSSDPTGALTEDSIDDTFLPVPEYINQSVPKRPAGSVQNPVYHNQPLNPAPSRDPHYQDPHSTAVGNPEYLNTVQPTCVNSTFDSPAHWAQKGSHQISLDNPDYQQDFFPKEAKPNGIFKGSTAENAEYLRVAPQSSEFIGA

Row | DC50 | SMILES
1 | 50 to 150 nM | O=C1CCC(Nc2cccc(C3CCN(CC(=O)N4CCN(c5ccc(-c6cc(F)c7c(c6)C(=O)N(C(C(=O)Nc6nccs6)c6ncn8c6CCC8)C7)cc5)CC4)CC3)c2)C(=O)N1 (stereo not drawn) [Compound 16, 2-(6,7-dihydro-5H-pyrrolo[1,2-c]imidazol-1-yl)-2-(6-(4-(4-(2-(4-(3-((2,6-dioxopiperidin-3-yl)amino)phenyl)piperidin-1-yl)acetyl)piperazin-1-yl)phenyl)-4-fluoro-1-oxoisoindolin-2-yl)-N-(thiazol-2-yl)acetamide]

Same assay, conditions: Table 9B; NCI-H1975 cells, 6 hours, Total EGFR HTRF; read-out: H1975 EGFR DC50

Row | DC50 | SMILES
2 | < 50 nM | Cn1nc(N2CCC(=O)NC2=O)c2ccc(C3CCN(CC(=O)N4CCN(c5ccc(-c6cc(F)c7cn(C(C(=O)Nc8nccs8)c8ncn9c8CCC9)nc7c6)cn5)CC4)CC3(F)F)cc21 (stereo not drawn) [Compound 72, 2-(6,7-dihydro-5H-pyrrolo[1,2-c]imidazol-1-yl)-2-(6-(6-(4-(2-(4-(3-(2,4-dioxotetrahydropyrimidin-1(2H)-yl)-1-methyl-1H-indazol-6-yl)-3,3-difluoropiperidin-1-yl)acetyl)piperazin-1-yl)pyridin-3-yl)-4-fluoro-2H-indazol-2-yl)-N-(thiazol-2-yl)acetamide]
3 | < 50 nM | O=C1CCN(c2ccc(N3CCC(O)(CC(=O)N4CC5(CCN(c6ccc(-c7cc(F)c8c(c7)C(=O)N(C(C(=O)Nc7nccs7)c7ncn9c7CCC9)C8)cc6)CC5)C4)CC3)c(Cl)c2)C(=O)N1 (stereo not drawn) [Compound 172, 2-[6-[4-[2-[2-[1-[2-chloro-4-(2,4-dioxohexahydropyrimidin-1-yl)phenyl]-4-hydroxy-4-piperidyl]acetyl]-2,7-diazaspiro[3.5]nonan-7-yl]phenyl]-4-fluoro-1-oxo-isoindolin-2-yl]-2-(6,7-dihydro-5H-pyrrolo[1,2-c]imidazol-1-yl)-N-thiazol-2-yl-acetamide]
4 | < 50 nM | Cn1nc(N2CCC(=O)NC2=O)c2ccc(C3CCN(CC(=O)N4CC5(C4)CN(c4ccc(-c6cc(F)c7c(c6)C(=O)N(C(C(=O)Nc6nccs6)c6ncn8c6CCC8)C7)cc4)C5)CC3F)cc21 (single isomer, unassigned; isomer 2) [Compound 125, 2-(6,7-dihydro-5H-pyrrolo[1,2-c]imidazol-1-yl)-2-[6-[4-[2-[2-[4-[3-(2,4-dioxohexahydropyrimidin-1-yl)-1-methyl-indazol-6-yl]-3-fluoro-1-piperidyl]acetyl]-2,6-diazaspiro[3.3]heptan-6-yl]phenyl]-4-fluoro-1-oxo-isoindolin-2-yl]-N-thiazol-2-yl-acetamide, isomer 2]
5 | < 50 nM | O=C1CC[C@@H](Nc2ccc(N3CCC(O)(CC(=O)N4CCC(NC(=O)c5ccc(C#Cc6cc(F)c7c(c6)C(=O)N(C(C(=O)Nc6nccs6)c6ncn8c6C[C@@H](F)C8)C7)cn5)CC4)CC3)c(F)c2)C(=O)N1 (stereo partly drawn) [Compound 108, N-(1-(2-(1-(4-(((R)-2,6-dioxopiperidin-3-yl)amino)-2-fluorophenyl)-4-hydroxypiperidin-4-yl)acetyl)piperidin-4-yl)-5-((7-fluoro-2-(1-((R)-6-fluoro-6,7-dihydro-5H-pyrrolo[1,2-c]imidazol-1-yl)-2-oxo-2-(thiazol-2-ylamino)ethyl)-3-oxoisoindolin-5-yl)ethynyl)picolinamide]
6 | < 50 nM | Cn1nc(N2CCC(=O)NC2=O)c2ccc(C3CCN(CC(=O)N4CCC5(C4)CN(c4ccc(-c6cc(F)c7c(c6)C(=O)N(C(C(=O)Nc6nccs6)c6ncn8c6CCC8)C7)cc4)C5)CC3(F)F)cc21 (stereo not drawn) [Compound 113, 2-(6,7-dihydro-5H-pyrrolo[1,2-c]imidazol-1-yl)-2-(6-(4-(6-(2-(4-(3-(2,4-dioxotetrahydropyrimidin-1(2H)-yl)-1-methyl-1H-indazol-6-yl)-3,3-difluoropiperidin-1-yl)acetyl)-2,6-diazaspiro[3.4]octan-2-yl)phenyl)-4-fluoro-1-oxoisoindolin-2-yl)-N-(thiazol-2-yl)acetamide]
7 | < 50 nM | Cn1nc(N2CCC(=O)NC2=O)c2ccc(C3CCN(C(=O)C4CC5(C4)CN(c4ccc(-c6cc(F)c7c(c6)C(=O)N(C(C(=O)Nc6nccs6)c6ncn8c6CCC8)C7)cc4)C5)CC3(F)F)cc21 (stereo not drawn) [Compound 155, 2-(6,7-dihydro-5H-pyrrolo[1,2-c]imidazol-1-yl)-2-[6-[4-[6-[4-[3-(2,4-dioxohexahydropyrimidin-1-yl)-1-methyl-indazol-6-yl]-3,3-difluoro-piperidine-1-carbonyl]-2-azaspiro[3.3]heptan-2-yl]phenyl]-4-fluoro-1-oxo-isoindolin-2-yl]-N-thiazol-2-yl-acetamide]
8 | < 50 nM | O=C1CCN(c2ccc(N3CCC(O)(CC(=O)N4CCC5(CC4)CN(c4ccc(-c6cc(F)c7c(c6)C(=O)N(C(C(=O)Nc6nccs6)c6ncn8c6CCC8)C7)cc4)C5)CC3)c(Cl)c2)C(=O)N1 (stereo not drawn) [Compound 170, 2-[6-[4-[7-[2-[1-[2-chloro-4-(2,4-dioxohexahydropyrimidin-1-yl)phenyl]-4-hydroxy-4-piperidyl]acetyl]-2,7-diazaspiro[3.5]nonan-2-yl]phenyl]-4-fluoro-1-oxo-isoindolin-2-yl]-2-(6,7-dihydro-5H-pyrrolo[1,2-c]imidazol-1-yl)-N-thiazol-2-yl-acetamide]
9 | < 50 nM | Cn1nc(N2CCC(=O)NC2=O)c2ccc(C3CCN(C(=O)CC4CC5(C4)CN(c4ccc(-c6cc(F)c7c(c6)C(=O)N(C(C(=O)Nc6nccs6)c6ncn8c6CCC8)C7)cc4)C5)CC3(F)F)cc21 (stereo not drawn) [Compound 102, 2-(6,7-dihydro-5H-pyrrolo[1,2-c]imidazol-1-yl)-2-(6-(4-(6-(2-(4-(3-(2,4-dioxotetrahydropyrimidin-1(2H)-yl)-1-methyl-1H-indazol-6-yl)-3,3-difluoropiperidin-1-yl)-2-oxoethyl)-2-azaspiro[3.3]heptan-2-yl)phenyl)-4-fluoro-1-oxoisoindolin-2-yl)-N-(thiazol-2-yl)acetamide]
10 | 50 to 150 nM | O=C1CCC(Nc2ccc(N3CCCC(O)(CC(=O)N4CC5(C4)CN(c4ccc(-c6cc(F)c7c(c6)C(=O)N(C(C(=O)Nc6nccs6)c6ncn8c6CCC8)C7)cc4)C5)CC3)c(F)c2)C(=O)N1 (single isomer, unassigned; isomer a1) [Compound 164, 2-(6,7-dihydro-5H-pyrrolo[1,2-c]imidazol-1-yl)-2-[6-[4-[2-[2-[1-[4-[[2,6-dioxo-3-piperidyl]amino]-2-fluoro-phenyl]-4-hydroxy-azepan-4-yl]acetyl]-2,6-diazaspiro[3.3]heptan-6-yl]phenyl]-4-fluoro-1-oxo-isoindolin-2-yl]-N-thiazol-2-yl-acetamide, isomer A1]
11 | < 50 nM | O=C1CCC(Nc2cc(F)c(N3CCC(O)(CC(=O)N4CC5(CCN(c6ccc(-c7cc(F)c8c(c7)C(=O)N(C(C(=O)Nc7nccs7)c7ncn9c7CCC9)C8)cc6)CC5)C4)CC3)c(F)c2)C(=O)N1 (single isomer, unassigned; isomer 1) [Compound 134, 2-(6,7-dihydro-5H-pyrrolo[1,2-c]imidazol-1-yl)-2-[6-[4-[2-[2-[1-[4-[[2,6-dioxo-3-piperidyl]amino]-2,6-difluoro-phenyl]-4-hydroxy-4-piperidyl]acetyl]-2,7-diazaspiro[3.5]nonan-7-yl]phenyl]-4-fluoro-1-oxo-isoindolin-2-yl]-N-thiazol-2-yl-acetamide, isomer 1]
12 | < 50 nM | C[C@@H]1CC(O)(CC(=O)N2CC3(C2)CN(c2ccc(-c4cc(F)c5c(c4)C(=O)N(C(C(=O)Nc4nccs4)c4ncn6c4CCC6)C5)cc2)C3)C[C@H](C)N1c1ccc(NC2CCC(=O)NC2=O)cc1F (stereo partly drawn) [Compound 161, 2-(6,7-dihydro-5H-pyrrolo[1,2-c]imidazol-1-yl)-2-[6-[4-[2-[2-[(2s,6r)-1-[4-[(2,6-dioxo-3-piperidyl)amino]-2-fluoro-phenyl]-4-hydroxy-2,6-dimethyl-4-piperidyl]acetyl]-2,6-diazaspiro[3.3]heptan-6-yl]phenyl]-4-fluoro-1-oxo-isoindolin-2-yl]-N-thiazol-2-yl-acetamide]
13 | 50 to 150 nM | Cn1nc(N2CCC(=O)NC2=O)c2ccc(C3CCN(CC(=O)N4CC5(C4)CN(c4ccc(-c6cc(F)c7c(c6)C(=O)N(C(C(=O)Nc6ccccn6)c6ncn8c6CCC8)C7)cc4)C5)C4(CC4)C3)cc21 (stereo not drawn) [Compound 153, 2-(6,7-dihydro-5H-pyrrolo[1,2-c]imidazol-1-yl)-2-[6-[4-[2-[2-[7-[3-(2,4-dioxohexahydropyrimidin-1-yl)-1-methyl-indazol-6-yl]-4-azaspiro[2.5]octan-4-yl]acetyl]-2,6-diazaspiro[3.3]heptan-6-yl]phenyl]-4-fluoro-1-oxo-isoindolin-2-yl]-N-(2-pyridyl)acetamide]
14 | 50 to 150 nM | O=C1CCC(Nc2ccc(N3CCCC(O)(CC(=O)N4CC5(C4)CN(c4ccc(-c6cc(F)c7c(c6)C(=O)N(C(C(=O)Nc6nccs6)c6ncn8c6CCC8)C7)cc4)C5)CC3)c(F)c2)C(=O)N1 (single isomer, unassigned; isomer b1) [Compound 166, 2-(6,7-dihydro-5H-pyrrolo[1,2-c]imidazol-1-yl)-2-[6-[4-[2-[2-[1-[4-[[2,6-dioxo-3-piperidyl]amino]-2-fluoro-phenyl]-4-hydroxy-azepan-4-yl]acetyl]-2,6-diazaspiro[3.3]heptan-6-yl]phenyl]-4-fluoro-1-oxo-isoindolin-2-yl]-N-thiazol-2-yl-acetamide, isomer B1]
15 | 50 to 150 nM | Cc1cc(C2CCN(C(=O)CN3CCC(c4ccc(NC5CCC(=O)NC5=O)cc4)CC3)CC2)ccc1-c1cc(F)c2c(c1)C(=O)N(C(C(=O)Nc1nccs1)c1ncn3c1CCC3)C2 (stereo not drawn) [Compound 152, 2-(6,7-dihydro-5H-pyrrolo[1,2-c]imidazol-1-yl)-2-[6-[4-[1-[2-[4-[4-[(2,6-dioxo-3-piperidyl)amino]phenyl]-1-piperidyl]acetyl]-4-piperidyl]-2-methyl-phenyl]-4-fluoro-1-oxo-isoindolin-2-yl]-N-thiazol-2-yl-acetamide]

Source: patent US20240158418A1 (C4 Therapeutics, Inc., priority 2021, published 2024)
